Where a name gives a salt, the structure may show the parent alone.
System: liver
Experiment: Transcriptional profiling on Affymetrix GeneChips, single dose, naïve mice: liver
Assay type: in vivo, C57BL/6 mice
Conditions: for Number of differentially expressed genes identified: Liver: Naïve, Single Dose
Experimental: Treated mice were sacrificed at 2, 7, or 12 hours. Tissues (liver, spleen, kidney, jejunum, cortex, hippocampus, striatum and whole blood) were collected and analyzed by transcriptional profiling on mouse Affymetrix GeneChips.
Tissues (liver, spleen, kidney, jejunum, cortex, hippocampus, striatum and whole blood) were collected and analyzed by transcriptional profiling on mouse Affymetrix GeneChips.
Animals were exposed to CO2 and whole blood collected via cardiac puncture. Two 100 μl aliquots of whole blood were collected in 1.5 mL microcentrifuge tubes and snap frozen in liquid nitrogen. Peripheral (liver, spleen, kidney and jejunum) and CNS brain (cerebellum, hippocampus, striatum and cortex) tissues were harvested and snap frozen in liquid nitrogen, with special care taken to collect tissues of similar size and from the same location. All samples were stored at −80° C. until RNA extraction was conducted.
For RNA preparation, frozen tissues were placed in 2 mL RNAse-free 96-well blocks with 1.5 mL QIAzol Lysis Reagent (QIAgen) and a 3.2 mm stainless steel bead (BioSpec Products, Bartlesville, Okla.). Tissues were disrupted for four cycles of 45 seconds in a Mini-Beadbeater (Biospec Products). RNA was extracted in chloroform and the aqueous phase was mixed with an equal volume of 70% ethanol. Extracted RNA was applied to RNeasy 96 plates and purified by the spin method according to the manufacturer's protocol (RNeasy 96 Universal Tissue Protocol, QIAgen, Hilden Germany).
Automated sample amplifications and biotin labelings were carried out using the NuGEN Ovation RNA Amplification system V2 (Cat #3100), Ovation WB reagent (Cat #1300) and Encore Biotin module (Cat #4200) (NuGEN Technologies, Inc, San Carlos, Calif.) according to manufacturer's recommendations using an Arrayplex automated liquid handler (Beckman Coulter, Indianapolis, Ind.). Two micrograms of biotin labeled sscDNA probe were hybridized to Affymetrix GeneChip Affymetrix HT_MG-430_PM plate arrays with modified conditions as described in Allaire et al. Washing and staining of the hybridized arrays were completed as described in the GeneChip Expression analysis technical manual for HT plate arrays using the Genechip® Array Station (Affymetrix, Santa Clara, Calif.) with modifications as described in Allaire et al. The processed GeneChip® plate arrays were scanned using GeneTitan scanner (Affymetrix, Santa Clara, Calif.).
Affymetrix scans were subject to quality control (QC) measures. These tests included a visual inspection of the distribution of raw signal intensities and an assessment of RNA degradation, relative log expression (RLE), and normalized unsealed standard error (NUSE). All sample scans that passed these QC metrics were included in the analysis.
All CEL files were subjected to GC-content-based Robust Multi-array Average (GCRMA) normalization (version 2.20.0) (Irizarry R A, et al. Nucleic Acids Res 2003; 31:e15; Li C, et al. Genome Biol 2001; 2:[…]0032). Expression levels were log (base 2) transformed.
All calculations and analyses were carried out using R (version 2.11.1) and Bioconductor computational tools (Gentleman R. Springer Science+Business Media 2005).

[1] = liver, 100 mg/kg, 2 hr, vs matched vehicle controls
[2] = liver, 100 mg/kg, 7 hr, vs matched vehicle controls

COC(=O)/C=C/C(=O)OC [DMF, dimethyl fumarate] was tested, and the “FC Dnajc12 (DnaJ (Hsp40) homolog, subfamily C, member 12)” value (100DMF-vs-100MMF, 12 h, probe 1417441_PM_at, naïve single dose, tissue section before SPLEEN) was −2.49, the “FC Cyb561 (cytochrome b-561)” value (100DMF-vs-100MMF, 12 h, probe 1417507_PM_at, naïve single dose, tissue section before SPLEEN) was −2.02 and the “FC Crybb3 (crystallin, beta B3)” value (100DMF-vs-100MMF, 12 h, probe 1419005_PM_at, naïve single dose, tissue section before SPLEEN) was −1.69. For the same compound, the “FC 9130221J18Rik (RIKEN cDNA 9130221J18 gene)” value (100DMF-vs-100MMF, 12 h, probe 1446368_PM_at, naïve single dose, tissue section before SPLEEN) was −1.93, the “FC Tnfrsf19 (1448147_PM_at)” value (LIVER, 100DMF-vs-100MMF, 7 h) was 1.73 and the “FC Isyna1 (1415977_PM_at)” value (LIVER, 100DMF-vs-100MMF, 12 h) was −1.76. For the same compound, the “FC 1447411_PM_at (no gene symbol)” value (LIVER, 100DMF-vs-Veh, 2 h) was 2.57, the “FC 5430435G22Rik (1435830_PM_a_at)” value (LIVER, 100DMF-vs-Veh, 2 h) was 1.79 and the “FC 9130221J17Rik (1443159_PM_at)” value (LIVER, 100DMF-vs-Veh, 2 h) was 1.54. For the same compound, the “FC Abcc1 (1452233_PM_at)” value (LIVER, 100DMF-vs-Veh, 2 h) was 1.75, the “FC Akr1b8 (1448894_PM_at)” value (LIVER, 100DMF-vs-Veh, 2 h) was 2.18 and the “FC Clec4n (1419627_PM_s_at)” value (LIVER, 100DMF-vs-Veh, 2 h) was 2.34. For the same compound, the “FC Clec4d (1420804_PM_s_at)” value (LIVER, 100DMF-vs-Veh, 2 h) was 2.30, the “FC Figf (1438953_PM_at)” value (LIVER, 100DMF-vs-Veh, 2 h) was 2.23 and the “FC Figf (1438954_PM_x_at)” value (LIVER, 100DMF-vs-Veh, 2 h) was 1.90. For the same compound, the “FC Figf (1449528_PM_at)” value (LIVER, 100DMF-vs-Veh, 2 h) was 1.66, the “FC Hmox1 1448239_PM_at” value (LIVER, 100DMF-vs-Veh, 2 h) was 2.37 and the “FC Pgd (1436771_PM_x_at)” value (LIVER, 100DMF-vs-Veh, 2 h) was 1.59. For the same compound, the “FC Pgd (1437380_PM_x_at)” value (LIVER, 100DMF-vs-Veh, 2 h) was 1.61, the “FC Ppfibp2 (1417801_PM_a_at)” value (LIVER, 100DMF-vs-Veh, 2 h) was 2.38 and the “FC Srxn1 (1419942_PM_at)” value (LIVER, 100DMF-vs-Veh, 2 h) was 1.69. For the same compound, the “FC Srxn1 (1426875_PM_s_at)” value (LIVER, 100DMF-vs-Veh, 2 h) was 1.64, the “FC Srxn1 (1451680_PM_at)” value (LIVER, 100DMF-vs-Veh, 2 h) was 1.59 and the “FC Adora1 (1435495_PM_at)” value (LIVER, 100DMF-vs-Veh, 7 h) was 1.50. The “FC Akr1b8 (1448894_PM_at)” value (LIVER, 100DMF-vs-Veh, 7 h) was 1.58, the “FC Bmp6 (1450759_PM_at)” value (LIVER, 100DMF-vs-Veh, 7 h) was 1.57 and the “FC Clec4n (1419627_PM_s_at)” value (LIVER, 100DMF-vs-Veh, 7 h) was 2.01. The “FC Nqo1 (1423627_PM_at)” value (LIVER, 100DMF-vs-Veh, 7 h) was 1.81, the “FC Gstm4 (1424835_PM_at)” value (LIVER, 100DMF-vs-Veh, 12 h) was 1.54 and the “Number of genes, DMF Only / MMF Only” value (Liver) was 2. The “Number of differentially expressed genes identified: Liver” value (“Number of differentially” below) (100 mpk DMF-vs-100 mpk MMF, 2 h after last dosing) was 0, the “Number of differentially” value (100 mpk DMF-vs-100 mpk MMF, 7 h after last dosing) was 1 and the “Number of differentially” value (100 mpk DMF-vs-100 mpk MMF, 12 h after last dosing) was 5. For the same compound, the “Number of differentially” value (100 mpk, vs Vehicle, 2 h after last dosing) was 18, the “Number of differentially” value (100 mpk, vs Vehicle, 7 h after last dosing) was 5 and the “Number of differentially” value (100 mpk, vs Vehicle, 12 h after last dosing) was 1. For the same compound, the “Murine Liver DEGs: Abcc1 (1452233_PM_at)” value [1] was 1.75, the “Murine Liver DEGs: Akr1b8 (1448894_PM_at)” value [1] was 2.18 and the “Murine Liver DEGs: Clec4n (1419627_PM_s_at)” value [1] was 2.34. For the same compound, the “Murine Liver DEGs: Clec4d (1420804_PM_s_at)” value [1] was 2.30, the “Murine Liver DEGs: Figf (1438953_PM_at)” value [1] was 2.23 and the “Murine Liver DEGs: Hmox1 (1448239_PM_at)” value [1] was 2.37. The “Murine Liver DEGs: Pgd (1436771_PM_x_at)” value [1] was 1.59, the “Murine Liver DEGs: Ppfibp2 (1417801_PM_a_at)” value [1] was 2.38 and the “Murine Liver DEGs: Srxn1 (1419942_PM_at)” value [1] was 1.69. For the same compound, the “Murine Liver DEGs: Adora1 (1435495_PM_at)” value [2] was 1.50, the “Murine Liver DEGs: Akr1b8 (1448894_PM_at)” value [2] was 1.58 and the “Murine Liver DEGs: Bmp6 (1450759_PM_at)” value [2] was 1.57. For the same compound, the “Murine Liver DEGs: Clec4n (1419627_PM_s_at)” value [2] was 2.01, the “Murine Liver DEGs: Nqo1 (1423627_PM_at)” value [2] was 1.81 and the “Murine Liver DEGs: Gstm4 (1424835_PM_at)” value (liver, 100 mg/kg, 12 hr, vs matched vehicle controls) was 1.12. The “Abcc1 (probe set 1452233_PM_at) differential expression” value (liver, 2 hr) was 1.75, the “Akr1b8 (probe set 1448894_PM_at) differential expression” value (liver, 2 hr) was 2.18 and the “Clec4n (probe set 1419627_PM_s_at) differential expression” value (liver, 2 hr) was 2.34. The “Clec4d (probe set 1420804_PM_s_at) differential expression” value (liver, 2 hr) was 2.30, the “Figf (probe set 1438953_PM_at) differential expression” value (liver, 2 hr) was 2.23 and the “Hmox1 (probe set 1448239_PM_at) differential expression” value (liver, 2 hr) was 2.37. The “Pgd (probe set 1436771_PM_x_at) differential expression” value (liver, 2 hr) was 1.59, the “Ppfibp2 (probe set 1417801_PM_a_at) differential expression” value (liver, 2 hr) was 2.38 and the “Srxn1 (probe set 1419942_PM_at) differential expression” value (liver, 2 hr) was 1.69. For the same compound, the “Adora1 (probe set 1435495_PM_at) differential expression” value (liver, 7 hr) was 1.50, the “Akr1b8 (probe set 1448894_PM_at) differential expression” value (liver, 7 hr) was 1.58 and the “Bmp6 (probe set 1450759_PM_at) differential expression” value (liver, 7 hr) was 1.57. The “Clec4n (probe set 1419627_PM_s_at) differential expression” value (liver, 7 hr) was 2.01, the “Nqo1 (probe set 1423627_PM_at) differential expression” value (liver, 7 hr) was 1.81 and the “Gstm4 (probe set 1424835_PM_at) differential expression” value (liver, 12 hr) was 1.12.
